Laboratory results taken from patent US6326390A (King Pharmaceuticals Reseach and Development, Inc., priority 1999, dated 2001).
pKi: −log10 of the molar value. Where two headings read alike, the source gives them in different places.

Columns and labels:
[1] = biological target: T1, adenosine A3 receptors in Jurkat cell membranes (Homo sapiens, UniProt P0DMS8); experiment: Saturation of Compound 1 binding to A3 receptors in Jurkat cell membranes
T1 construct: characterization of A3 receptors in some human tumor cell lines; endogenous in cells; host or cells: Jurkat (human T-cell leukaemia), membranes
T1 sequence (P0DMS8 1-318): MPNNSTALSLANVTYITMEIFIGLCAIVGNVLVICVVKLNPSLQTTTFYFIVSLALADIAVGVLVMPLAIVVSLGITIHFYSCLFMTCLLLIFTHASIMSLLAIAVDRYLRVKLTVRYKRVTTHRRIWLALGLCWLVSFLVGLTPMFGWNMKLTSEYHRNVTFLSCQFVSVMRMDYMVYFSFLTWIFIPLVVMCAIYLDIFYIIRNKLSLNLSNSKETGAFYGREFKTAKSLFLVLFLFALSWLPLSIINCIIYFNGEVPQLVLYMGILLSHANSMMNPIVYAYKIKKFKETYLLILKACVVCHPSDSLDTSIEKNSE

[2] = biological target: T2, rat brain A1 adenosine receptor (Rattus norvegicus, UniProt P25099); experiment: Rat A1 adenosine receptor binding assay, displacement of [^3 H]CHA; conditions: rat brain membranes, [^3 H]CHA 1 nM; read-out: rA1 (Ki)
T2 construct: membranes of rat brain; from tissue; host or cells: whole brain membranes of male Wistar rats
T2 sequence (P25099 1-326): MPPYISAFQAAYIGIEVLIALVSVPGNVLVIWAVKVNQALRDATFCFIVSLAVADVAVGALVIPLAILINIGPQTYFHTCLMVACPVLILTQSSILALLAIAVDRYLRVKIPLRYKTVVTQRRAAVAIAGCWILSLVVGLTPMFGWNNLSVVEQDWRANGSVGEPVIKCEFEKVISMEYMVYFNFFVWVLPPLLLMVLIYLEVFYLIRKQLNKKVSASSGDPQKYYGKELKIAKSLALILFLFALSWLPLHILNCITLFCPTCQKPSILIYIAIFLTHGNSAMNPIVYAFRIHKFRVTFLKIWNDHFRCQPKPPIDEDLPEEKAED
Description: Male Wistar rats (200-250 g) were decapitated and the whole brain and striatum dissected on ice. […] After 30 min incubation at 37° C., the membranes were centrifuged and pellets were stored at -80° C. Prior to freezing, an aliquot of homogenate was removed for protein assay with bovine albumin as reference standard. Binding assays were performed on rat brain and striatum membranes respectively, in the presence of 10 mM MgCl2 at 25° C. All buffer solutions were adjusted to maintain a constant pH of 7.4.
Separation of bound from free radio ligand was performed by rapid filtration through Whatman GF/B filters which were washed three times with ice-cold buffer. Filter bound radioactivity was measured by scintillation spectrometry after addition of 5 mL of Aquassure. […] Incubation time ranged from 150 min. at 0° C. to 75 min at 30° C. according to the results of previous time-course experiments. Ki values were calculated from the Cheng-Prusoff equation. All binding data were analyzed using the nonlinear regression curve-fitting computer program LIGAND.

[3] = biological target: T3, adenosine A3 receptors in HL60 membranes (Homo sapiens, UniProt P0DMS8); experiment: Saturation of Compound 1 binding to A3 receptors in HL60 membranes
T3 construct: characterization of A3 receptors in some human tumor cell lines; endogenous in cells; host or cells: HL60 (human promyelocytic leukaemia), membranes
T3 sequence (P0DMS8 1-318): T1 sequence (P0DMS8 1-318)

cerebral ischemia = conditions: chronic administration; cited from earlier work
JURKAT cell line = experiment: [^125 I]-ABMECA binding on cell membranes of tumor cell lines: JURKAT; parameters: species or system human
Description: (§1) A series of binding experiments were performed on various tumor cell lines, using […] [^125 I]-ABMECA, with unspecific binding determined in the presence of 50 μM R-PIA or 200 μM NECA, on cell membranes of the cell lines. Specific binding was determined by substracting unspecific binding from total binding. The cell lines were the HL 60, NB4, SKN-MC, SKN-Be2C, SKN-SH and JURKAT cell lines.

NB4 cell line = experiment: [^125 I]-ABMECA binding on cell membranes of tumor cell lines: NB4
Description: as §1

[4] = biological target: T4, human A3 receptors expressed in the JURKAT cell line (Homo sapiens, UniProt P0DMS8); conditions: Jurkat cell membranes, [^125 I]AB-MECA
T4 sequence (P0DMS8 1-318): T1 sequence (P0DMS8 1-318)
Description: Jurkat cell lines appeared to provide the best results of the cell lines tested. A saturation experiment was performed using Jurkat cell lines at 37° C., with a one hour incubation period, using [^125 I]-ABMECA (0.125-1.5 nM), with nonspecific binding measured using RPIA (50 μM).

SKN-MC cell line = experiment: [^125 I]-ABMECA binding on cell membranes of tumor cell lines: SKN-MC
Description: as §1

SKN-Be2C cell line = experiment: [^125 I]-ABMECA binding on cell membranes of tumor cell lines: SKN-Be2C
Description: as §1

HL 60 cell line = experiment: [^125 I]-ABMECA binding on cell membranes of tumor cell lines: HL 60; parameters: species or system human
Description: as §1

[5] = biological target: T5, human A3 receptors expressed in HEK 293 cells (Homo sapiens, UniProt P0DMS8); conditions: saturation, n=3
T5 sequence (P0DMS8 1-318): T1 sequence (P0DMS8 1-318)
Description: Incubation time was 60 min at 37° C., according to the results of previous time-course experiments. Bound and free radioactivity were separated by filtering the assay mixture through Whatman GF/B glass-fiber filters using a Brandel cell harvester. Non-specific binding was defined as binding in the presence of 50 μM R-PIA and was about 30% of total binding. The incubation mixture was diluted with 3 ml of ice-cold incubation buffer, rapidly vacuum filtered and the filter was washed three times with 3 ml of incubation buffer. The filter bound radioactivity was counted in a Beckman gamma 5500B γ counter. The protein concentration can be determined according to a Bio-Rad method (3) with bovine albumin as reference standard.
Non-specific binding was defined in the presence of 50 μM R-PIA and was about 30% of total binding. Incubation time was 60 min at 37° C., according to the results of previous time-course experiments. Bound and free radioactivity was separated by filtering the assay mixture through Whatman GF/B glass-fiber filters using a Brandel cell harvester.

SKN-SH cell line = experiment: [^125 I]-ABMECA binding on cell membranes of tumor cell lines: SKN-SH
Description: as §1

## CCCn1cc2c(nc(NC(=O)Nc3ccc(OC)cc3)n3nc(-c4ccco4)nc23)n1 [Compound 1, 5-[[(4-Methoxyphenyl)amino]carbonyl]amino-8-propyl-2-(2-furyl)-pyrazolo[4,3-e] 1,2,4-triazolo[1,5-c]pyrimidine]
[1]; Jurkat cells, tritiated analogue of Compound 1
  density of adenosine A3 receptors detected: approximately 1300 fmol/mg protein
[1]; Jurkat membranes, 0.2 to 15 nM, n=3
  Bmax value: 1.30±0.03 pmol/mg protein
[2]
  pKi: < 5.00
[3]; HL60 cells, tritiated analogue of Compound 1
  density of adenosine A3 receptors detected: ~650 fmol/mg protein
[3]; HL60 membranes, 0.1 to 10 nM, n=3
  Bmax value: 626±42 fmol/mg protein

## CNC(=O)[C@H]1O[C@@H](n2cnc3c(NCc4cccc(I)c4)ncnc32)[C@H](O)[C@@H]1O [IB-MECA]
Cerebral ischemia
  protection against cerebral ischemia: protects against cerebral ischemia

## CNC(=O)[C@H]1O[C@@H](n2cnc3c(NCc4ccc(N)c([125I])c4)ncnc32)[C@H](O)[C@@H]1O [[^125 I]AB-MECA, N^6-(4-amino-3-iodobenzyl)-5'-(N-methylcarbamoyl)adenosine]
JURKAT cell line; JURKAT
  Percent Specific Binding: 38%
JURKAT cell line; JURKAT cell membranes
  Total Binding: 7599
JURKAT cell line; JURKAT, 50 μM R-PIA or 200 μM NECA
  Unspecific Binding: 4753
JURKAT cell line; JURKAT, total minus unspecific
  Specific Binding: 2846 cpm
NB4 cell line; NB4
  Percent Specific Binding: 19%
NB4 cell line; NB4, 50 μM R-PIA or 200 μM NECA
  Unspecific Binding: 2740
NB4 cell line; NB4, total minus unspecific
  Specific Binding: 637 cpm
NB4 cell line; NB4 cell membranes
  Total Binding: 3377
[4]
  Bmax (density of A3 receptor): approximately 300 fmol/mg protein
[4]; listed as [^125 I]-ABMECA
  Bmax (density of A3 receptor): 290 fmol/mg protein
SKN-MC cell line; SKN-MC
  Percent Specific Binding: 17%
SKN-MC cell line; SKN-MC cell membranes
  Total Binding: 7528
SKN-MC cell line; SKN-MC, 50 μM R-PIA or 200 μM NECA
  Unspecific Binding: 6220
SKN-MC cell line; SKN-MC, total minus unspecific
  Specific Binding: 1308 cpm
SKN-Be2C cell line; SKN-Be2C
  Percent Specific Binding: 24%
SKN-Be2C cell line; SKN-Be2C cell membranes
  Total Binding: 6000
SKN-Be2C cell line; SKN-Be2C, 50 μM R-PIA or 200 μM NECA
  Unspecific Binding: 4585
SKN-Be2C cell line; SKN-Be2C, total minus unspecific
  Specific Binding: 1415 cpm
HL 60 cell line; HL 60
  Percent Specific Binding: 20%
HL 60 cell line; HL 60, 50 μM R-PIA or 200 μM NECA
  Unspecific Binding: 2791
HL 60 cell line; HL 60, total minus unspecific
  Specific Binding: 693 cpm
HL 60 cell line; HL 60 cell membranes
  Total Binding: 3484
[5]
  Bmax value: 62±1 fmol/mg protein
SKN-SH cell line; SKN-SH
  Percent Specific Binding: 3%
SKN-SH cell line; SKN-SH cell membranes
  Total Binding: 2671
SKN-SH cell line; SKN-SH, 50 μM R-PIA or 200 μM NECA
  Unspecific Binding: 2580
SKN-SH cell line; SKN-SH, total minus unspecific
  Specific Binding: 91 cpm
